Earlier results, collected in US20250283018A1, “TOILET RIM BLOCKS WITH SCENT CHANGE” (SYMRISE AG, priority 2021, published 2025).
Where two headings read alike, the source gives them in different places.

Tests used:
[1] = not given; remark: listed apart in the source
[2] = Table 3, components of POWER PLATIN

Row | Compound | logP (list of selected fragrances) | Bp. [° C.] ([1]; list of selected fragrances) [°C] | logP (Table 1, components of MARINA) | Bp. [° C.] ([1]; Table 1, components of MARINA) [°C] | also measured
1 | C=C1CC/C=C(/C)CC[C@@H]2[C@@H]1CC2(C)C [CARYOPHYLLEN NAT. REKT.] |  |  |  |  | logP [2]: 6.3; Bp. [° C.] [1, 2]: 251 °C
2 | C=C(C)C1CC=C(C)C(OC(C)=O)C1 (stereo not drawn) [ACETIC ACID CARVYL ESTER] | 4.26 | 92 |  |  | 
3 | CCCCCCCCCCCC=O [ALDEHYD C12 LAURIN] |  |  | 4.75 | 249 | 
4 | CCCCCCCCCCO [ALKOHOL C10] |  |  | 3.79 | 231.1 | 
5 | COC(OC)C(C)(C)CC=C(C)C [AMAROCIT ®] |  |  |  |  | logP [2]: 3.39; Bp. [° C.] [1, 2]: 203 °C
6 | c1ccc2[nH]ccc2c1 [INDOL FF] |  |  |  |  | logP (Table 2, components of PEACH): 2.05; logP [2]: 2.05; Bp. [° C.] ([1]; Table 2, components of PEACH): 254 °C; Bp. [° C.] [1, 2]: 254 °C
7 | CC(=O)O[C@@H]1C[C@H]2CC[C@]1(C)C2(C)C (racemic) [ISOBORNYLACETAT] |  |  | 3.86 | 224 | 
8 | CC/C=C(\C)C(O)CCCCC (stereo not drawn) [UNDECAVERTOL] |  |  | 4.05 | 235 | 
9 | CC(=O)OC1CC2CC1C1CC=CC21 (stereo not drawn) [VERDYL ACETATE] | 2.36 | 260 |  |  | 
10 | HERBYLPROPIONAT | 2.89 | 276.15 | 3.68 | 276.15 | 
11 | CCCC1(C)OC2CC34CC(C(C)(C)C3CCC4C)C2(C)O1 (stereo not drawn) | 5.94 | 336 |  |  | 
12 | CC1(C)C2CC=C(CCC=O)C1C2 (stereo not drawn) [PINOACETALDEHYD] |  |  | 3.76 | 242 | 
13 | C/C=C/C(=O)C1=C(C)C=CCC1(C)C [DAMASCENON] |  |  |  |  | logP (Table 2, components of PEACH): 4.21; logP [2]: 4.21; Bp. [° C.] ([1]; Table 2, components of PEACH): 263 °C; Bp. [° C.] [1, 2]: 263 °C
14 | O=Cc1ccc2c(c1)OCO2 [HELIOTROPIN/PIPERONAL] | 1.35 | 263 |  |  | 
15 | O=C1CCCCCCCCCCCCCCC1 [8-CYCLOHEXADECANONE, 8-cyclohexadecanone] | 5.97 | 323 |  |  | logP (Table 2, components of PEACH): 5.82; Bp. [° C.] ([1]; Table 2, components of PEACH): 323 °C
16 | MENTHON L/ISOMENTHON D |  |  | 2.87 | 204 | 
17 | Cc1ccc2c(c1)OCC(=O)CO2 [METHYLBENZODIOXEPINON] | 1.8 | 289 |  |  | 
18 | NEROL 900 |  |  |  |  | logP [2]: 3.47; Bp. [° C.] [1, 2]: 228 °C
19 | O=C(OCc1ccccc1)c1ccccc1O [BENZYLSALICYLAT] | 4.06 | 325 |  |  | 
20 | C/C=C/C(=O)C1C(C)C=CCC1(C)C (stereo not drawn) [DELTA DEMASCONE] |  | 251 |  |  | logP (Table 2, components of PEACH): 4.16; logP [2]: 4.16; Bp. [° C.] ([1]; Table 2, components of PEACH): 251 °C; Bp. [° C.] [1, 2]: 251 °C
21 | CCCCCCCCCCC=O [ALDEHYD C11 UNDECANAL] |  |  | 4.25 | 223 | 
22 | CCCCC(=CCC#N)CC | 3.98 | 230 |  |  | 
23 | CCCCCCCC=O [ALDEHYD C 8] |  |  | 2.78 | 171 | logP (Table 2, components of PEACH): 2.78; Bp. [° C.] ([1]; Table 2, components of PEACH): 171 °C

Row | Compound | logP (list of selected fragrances) | Bp. [° C.] ([1]; list of selected fragrances) [°C] | logP (Table 1, components of MARINA) | Bp. [° C.] ([1]; Table 1, components of MARINA) [°C] | also measured
24 | CCCCCC(C)=O [HEPTANON-2] |  |  |  |  | logP (Table 2, components of PEACH): 1.73; Bp. [° C.] ([1]; Table 2, components of PEACH): 150 °C
25 | CC(=O)OCCC(C)C [ISOAMYLACETAT] |  |  |  |  | logP (Table 2, components of PEACH): 2.26; Bp. [° C.] ([1]; Table 2, components of PEACH): 143 °C
26 | CC(C)=CCCC1=CCC(C)(C=O)CC1 (stereo not drawn) [PRECYCLEMONE B] |  |  | 5.19 | 267 | logP [2]: 5.19; Bp. [° C.] [1, 2]: 267 °C
27 | CCCCCCOC(=O)c1ccccc1O [HEXYLSALICYLAT, hexyl salicylate] | 4.98 | 327 | 5.06 | 327 | 
28 | CCCCCCC1CCC(=O)O1 (stereo not drawn) [GAMA DECALACTONE] | 2.36 | 266 |  |  | logP (Table 2, components of PEACH): 2.57; Bp. [° C.] ([1]; Table 2, components of PEACH): 266 °C
29 | CC(C)C1CC=C(CCC=O)CC1 (stereo not drawn) [3-[4-ISOPROPYLCYCLOHEXEN-1-YL]PROPANAL] | 4.8 | 258 |  |  | 
30 | CCCCCCCCCC(C)=O [UNDECANON-2] |  |  |  |  | logP [2]: 3.69; Bp. [° C.] [1, 2]: 231.5 °C
31 | CC1=CCC(C=CC(C)C(C)O)C1(C)C (stereo in doubt) [EBANOL] |  |  |  |  | logP [2]: 4.93; Bp. [° C.] [1, 2]: 274 °C
32 | O=C1CCCCCCCCCCCC(=O)OCCO1 [ETHYLENBRASSYLAT] |  |  | 4.71 | 382 | 
33 | CARYOPHYLLENACETAT | 5.52 | 306 | 5.75 | 306 | logP (Table 2, components of PEACH): 5.75; Bp. [° C.] ([1]; Table 2, components of PEACH): 306 °C
34 | ISOBUTYLMENTHONE |  |  | 2.94 | 211 | 
35 | COC1CC2CC1C1CC(C=O)CC21 (stereo not drawn) [SCENTENAL] |  |  | 2.03 | 273 | 
36 | CC(C)CCCC(C)CCO (stereo not drawn) [TETRAHYDROGERANIOL] |  |  | 3.64 | 212 | logP [2]: 3.64; Bp. [° C.] [1, 2]: 212 °C
37 | SPIRO[1,3-DIOXOLANE-2,5′-(4′,4′,8′,8′-TETRAMETHYL-HEXAHYDRO-3′,9′-MENTHANONAPHTHALENE)] | 5.16 | 280 |  |  | 
38 | c1ccc(Oc2ccccc2)cc1 [DIPHENYLOXID] |  |  | 4.05 | 258 | logP [2]: 4.05; Bp. [° C.] [1, 2]: 258 °C
39 | CCCCCCCCCC=O [ALDEHYD C10] |  |  | 3.76 | 208.5 | logP (Table 2, components of PEACH): 3.76; logP [2]: 3.76; Bp. [° C.] ([1]; Table 2, components of PEACH): 208.5 °C; Bp. [° C.] [1, 2]: 208.5 °C
40 | CC1CC(C)(c2ccccc2)OC(C)O1 (stereo not drawn) | 2.79 | 279.2 |  |  | 
41 | CCCCCCCCC=O [ALDEHYD C 9] |  |  | 3.27 | 191 | 
42 | CCCCCCCCCCCCCCCCCC=O [OCTADECANAL] | 1.83 | 250 |  |  | 
43 | C=CC(C)CCCC(C)(C)O (stereo not drawn) [DIHYDROMYRCENOL] |  |  | 3.47 | 194 | logP [2]: 3.47; Bp. [° C.] [1, 2]: 194 °C
44 | CC(C)=CCCC(C)CC#N (stereo not drawn) |  |  | 3.55 | 235 | 
45 | CCCCCCCCCCC=CC#N [OZONIL] |  |  | 5.04 | 293 | 
